Biological target: T1, Type-1 angiotensin II receptor (Bos taurus, UniProt P25104)
T1 sequence (P25104 whole entry): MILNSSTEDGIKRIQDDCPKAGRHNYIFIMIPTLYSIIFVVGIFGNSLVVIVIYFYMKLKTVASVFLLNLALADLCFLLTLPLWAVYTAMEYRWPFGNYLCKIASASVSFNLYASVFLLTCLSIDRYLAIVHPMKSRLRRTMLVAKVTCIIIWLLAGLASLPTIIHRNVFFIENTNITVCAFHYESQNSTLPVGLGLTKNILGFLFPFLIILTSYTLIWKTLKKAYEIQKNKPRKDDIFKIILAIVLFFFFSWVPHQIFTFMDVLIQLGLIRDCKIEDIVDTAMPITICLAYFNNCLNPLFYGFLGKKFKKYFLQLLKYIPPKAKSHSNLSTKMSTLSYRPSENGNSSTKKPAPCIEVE
Experiment: In vitro binding affinity to angiotensin II receptor in bovine adrenal cortex
Format: tissue-based
Settings: not given

Going from `CCCCc1nc2ccc([C@H]3[C@@H]4C(=O)OC[C@@H]4ON3C)cc2c(=O)n1Cc1ccc(-c2ccccc2-c2nn[nH]n2)cc1` to `CCCCc1nc2ccc([C@@H]3[C@@H]4C(=O)OC[C@@H]4ON3C)cc2c(=O)n1Cc1ccc(-c2ccccc2-c2nnn[nH]2)cc1`, the IC50 rises from 68 nM to 150 nM (2.2-fold). The first is the more potent here.

Going from `CCCCc1nc2ccc([C@@H]3[C@@H]4C(=O)OC[C@@H]4ON3Cc3ccccc3)cc2c(=O)n1Cc1ccc(-c2ccccc2-c2nn[nH]n2)cc1` to `CCCCc1nc2ccc([C@H]3[C@@H]4C(=O)OC[C@@H]4ON3Cc3ccccc3)cc2c(=O)n1Cc1ccc(-c2ccccc2-c2nnn[nH]2)cc1`, the IC50 rises from 94 nM to 177 nM (1.9-fold).

`CCCCc1nc2ccc([C@H]3C4CCCC4ON3C)cc2c(=O)n1Cc1ccc(-c2ccccc2-c2nn[nH]n2)cc1` (stereo partly specified) and `CCCCc1nc2ccc([C@H]3C4CCCCCCC4ON3C)cc2c(=O)n1Cc1ccc(-c2ccccc2-c2nn[nH]n2)cc1` (stereo partly specified) are within 1.5-fold of each other in IC50: 154 nM for the first, 180 nM for the second.

Compared with `CCCCc1nc2ccc(C3=NN[C@H]4C(=O)N(C)C(=O)[C@@H]34)cc2c(=O)n1Cc1ccc(-c2ccccc2-c2nn[nH]n2)cc1`, `CCCCc1nc2ccc([C@@H]3[C@@H]4C(=O)CC[C@@H]4ON3C)cc2c(=O)n1Cc1ccc(-c2ccccc2-c2nn[nH]n2)cc1` is 2.6-fold lower in IC50: 110 nM for the first, 42 nM for the second.

Going from `CCCCc1nc2ccc([C@@H]3C[C@H]4CCCCN3O4)cc2c(=O)n1Cc1ccc(-c2ccccc2-c2nnn[nH]2)cc1` to `CCCCc1nc2ccc([C@@H]3[C@H]4CCCN3OC4)cc2c(=O)n1Cc1ccc(-c2ccccc2-c2nnn[nH]2)cc1`, the IC50 falls from 42 nM to 16 nM (2.6-fold).

`CCCCc1nc2ccc([C@H]3C[C@H](CO)ON3C)cc2c(=O)n1Cc1ccc(-c2ccccc2-c2nnn[nH]2)cc1` and `CCCCc1nc2ccc([C@@H]3C[C@H](CO)ON3C)cc2c(=O)n1Cc1ccc(-c2ccccc2-c2nn[nH]n2)cc1` are within 1.5-fold of each other in IC50: 43 nM for the first, 61 nM for the second.

Going from `CCCCc1nc2ccc([C@H]3[C@@H]4C(=O)CCC[C@@H]4ON3C)cc2c(=O)n1Cc1ccc(-c2ccccc2-c2nn[nH]n2)cc1` to `CCCCc1nc2ccc([C@H]3[C@@H]4C(=O)CC[C@@H]4ON3C)cc2c(=O)n1Cc1ccc(-c2ccccc2-c2nnn[nH]2)cc1`, the IC50 falls from 900 nM to 98 nM (9.2-fold). The second is the more potent here.

First: CCCCc1nc2ccc([C@H]3[C@@H]4CCC[C@@H]4ON3C)cc2c(=O)n1Cc1ccc(-c2ccccc2-c2nnn[nH]2)cc1
Second: CCCCc1nc2ccc([C@H]3OC[C@H]4[C@@H]3ON3[C@@H]4CCC3(C)C)cc2c(=O)n1Cc1ccc(-c2ccccc2-c2nnn[nH]2)cc1
The IC50 of the first is 1.8-fold higher: 98 nM for the first, 53 nM for the second. The second is the more potent here.

`CCCCc1nc2ccc([C@@H]3C[C@H]4C(c5ccccc5)=NO[C@H]4O3)cc2c(=O)n1Cc1ccc(-c2ccccc2-c2nn[nH]n2)cc1` and `CCCCc1nc2ccc([C@@H]3C[C@H]4C(c5ccc(C)cc5)=NO[C@H]4O3)cc2c(=O)n1Cc1ccc(-c2ccccc2-c2nnn[nH]2)cc1` are within 1.5-fold of each other in IC50: 76 nM for the first, 105 nM for the second.

First: CCCCc1nc2ccc([C@H]3[C@@H]4C(=O)CC[C@@H]4ON3Cc3ccccc3)cc2c(=O)n1Cc1ccc(-c2ccccc2-c2nnn[nH]2)cc1
Second: CCCCc1nc2ccc([C@H]3OC[C@@H]4ON5[C@@H](CCC5(C)C)[C@@H]43)cc2c(=O)n1Cc1ccc(-c2ccccc2-c2nn[nH]n2)cc1
The IC50 of the first is 2.1-fold higher: 79 nM for the first, 38 nM for the second.

With `CCCCc1nc2ccc([C@@H]3C[C@H]4C5CCC(C)(C)N5O[C@H]4O3)cc2c(=O)n1Cc1ccc(-c2ccccc2-c2nn[nH]n2)cc1` (stereo partly specified) the IC50 was 32 nM.

System: Rattus norvegicus
Experiment: Decrease in Mean Arterial Blood Pressure(MABP) in Aorta […] rat model at a dose of 3 mg/kg p.o.
Format: functional
Settings: route oral

Going from `CCCCc1nc2ccc([C@H]3[C@@H]4C(=O)OC[C@@H]4ON3C)cc2c(=O)n1Cc1ccc(-c2ccccc2-c2nn[nH]n2)cc1` to `CCCCc1nc2ccc([C@H]3OC[C@@H]4ON5[C@@H](CCC5(C)C)[C@@H]43)cc2c(=O)n1Cc1ccc(-c2ccccc2-c2nn[nH]n2)cc1`, the MABP falls from 60 mmHg to 45 mmHg.

For `CCCCc1nc2ccc(C3CCC4CCCCC4O3)cc2c(=O)n1Cc1ccc(-c2ccccc2-c2nn[nH]n2)cc1` (stereo unspecified), the MABP was 15 mmHg.

System: not listed separately
Experiment: Percent blockade of the vasopressor response to A II (0.05 ug/kg i.v.) at a dose of 5 mg/kg p.o. in A II challenge model
Format: functional
Settings: route oral

In the case of `CCCCc1nc2ccc([C@@H]3[C@@H]4C(=O)CC[C@@H]4ON3C)cc2c(=O)n1Cc1ccc(-c2ccccc2-c2nn[nH]n2)cc1`, the Activity is reported as 95%.

System: not listed separately
Experiment: Percent blockade of the vasopressor response to A II (0.05 ug/kg i.v.) at a dose of 5 mg/kg p.o. in A II challenge model.
Format: functional
Settings: route oral

`CCCCc1nc2ccc([C@H]3[C@@H]4C(=O)OC[C@@H]4ON3C)cc2c(=O)n1Cc1ccc(-c2ccccc2-c2nn[nH]n2)cc1` showed an Activity of 95%.
